Measurements published in US20120128706A1, “IMMUNE ADJUVANT COMPRISING ATP” (priority 2007, published 2012).

Columns and labels:
Balb/c mice [1] = assay: Production amount of antibody by ELISA after dermal administration of antigenic substance with immunoadjuvant (Test Example 1); format: in vivo
Balb/c mice [2] = assay: Measurement of IgG1/IgG2 ratio in blood samples as an index of Th2/Th1 balance (Test Example 2); format: in vivo; details: for IgG1/IgG2 ratio (given as average of the absorbance): mouse, in vivo
Method: The blood sample collected on the 25th day from the start of the test was provided, and the IgG1/IgG2 ratio was measured as an index of Th2/Th1 balance.
Further, a blood sample obtained by inoculating only the antigenic substance by intraperitoneal administration instead of the dermal administration at the same time as in the administration schedule in Test Example 1 was used as a control blood sample for comparison.
The IgG1/IgG2 ratio was measured with a Mouse Monoclonal Antibody Isotyping Reagents kit (SIGMA).
Specifically, a mouse serum was diluted with PBS by a factor of 1000 to give a solution. The solution (100 μL) was added to wells in a plate and was incubated at 37° C. for one hr. Next, each well was washed three times with PBS, and 100 μL of isotyping specific reagents (reagents containing IgA, IgG1, IgG2a, and IgG2b), which had been diluted by a factor of 1000, were added to the wells followed by incubation at room temperature for 30 min. Each well was washed three times with PBST. A peroxidase labelled mouse IgG (manufactured by SIGMA) (100 μL), which had been diluted with PBST by a factor of 5000, was added to the wells, and the wells were allowed to stand at room temperature for one hr. The wells were then washed three times with PBST. Thereafter, ABTS was added as a chromophoric substrate, and incubation was carried out for 5 to 10 min. For each well, the absorbance was measured with Multiscan Ascent (manufactured by Thermo Labsystems, wave length 405 nm).

cholera toxin [reference compound]
average±standard error of the absorbance (amount of antibody in mouse serum by ELISA) (Balb/c mice [1]; mouse, in vivo): 0.551±0.202 | IgG1/IgG2 ratio (given as average of the absorbance) (Balb/c mice [2]): 1.46

Nc1ncnc2c1ncn2[C@@H]1O[C@H](COP(=O)(O)OP(=O)(O)OP(=O)(O)O)[C@@H](O)[C@H]1O [ATP, adenosine triphosphate]
average±standard error of the absorbance (amount of antibody in mouse serum by ELISA) (Balb/c mice [1]; serum sample on the 25th day from start of test, dermal administration by tape preparation, serum diluted 1000-fold, wavelength 405 nm, n=4): 0.670±0.033 | Th2/Th1 balance (type of immunity induced) (Balb/c mice [2]; from IgG1/IgG2 ratio, compared with antigenic substance only intraperitoneally or with cholera toxin): Th2 cells are predominant | IgG1/IgG2 ratio (given as average of the absorbance) (Balb/c mice [2]): 2.28
